In the test the test system is HIV-1 subtype A strain 12RU 69831. As to the kind of experiment: Inhibition of HIV-1 reproduction / protection of infected MT-4 cells (living cell concentration, p24 production). It is filed as cell-based. The conditions noted are these: Human immunodeficiency virus 1, MT4, MT-4 cells infected with HIV-1 at a constant virus dose of 300 CCID50; read-out: Activity against HIV-1 12RU 69831 strain (subtype A). How it is done:
Evaluation of HIV reproduction inhibition/protection of human cells by anti-HIV products of the present invention was conducted by measuring change in living cells concentration in experimental wells with MT-4 cells infected with HIV-1, as well as by the production of viral protein p24 with adding different concentrations of compounds according to the present invention. Antiviral activity of products against HIV-1 subtype A strain 12RU 69831 was determined, when the cell culture was infected with a constant dose of virus, corresponding to 300 CCID50.
`Cc1cc(C#N)cc(C)c1Oc1nc(Nc2ccc(C#N)cc2)nc2c1CN(C(=O)[C@@H](N)Cc1ccc(O)cc1)CC2` [BB0274125, (S)-4-((6-(2-Amino-3-(4-hydroxyphenyl)propanoyl)-2-((4-cyanophenyl)amino)-5,6,7,8-tetrahydropyrido[4,3-d]pyrimidine-4-yl)oxy)-3,5-dimethylbenzonitrile]: the IC50 was determined as 82.1 µM.
With `Cc1cc(C#N)cc(C)c1Oc1nc(Nc2ccc(C#N)cc2)nc2c1CN(C(=O)[C@H](NC(=O)OC(C)(C)C)C(C)C)CC2` [BB0274126, (R)-Tert-butyl (1-(4-(4-cyano-2,6-dimethylphenoxy)-2-((4-cyanophenyl)amino)-7,8-dihydropyrido[4,3-d]pyrimidine-6(5H)-yl)-3-methyl-1-oxobutane-2-yl)carbamate], the IC50 turned out to be 45.3 µM.
Take `Cc1cc(C#N)cc(C)c1Oc1nc(Nc2ccc(C#N)cc2)nc2c1CN(C(=O)[C@H](N)C(C)C)CC2` [BB0274127, (R)-4-((6-(2-Amino-3-methylbutanoyl)-2-((4-cyanophenyl)amino)-5,6,7,8-tetrahydropyrido[4,3-d]pyrimidine-4-yl)oxy)-3,5-dimethylbenzonitrile]: the IC50 came to 12.1 µM.
The figure for `Cc1cc(C#N)cc(C)c1Oc1nc(Nc2ccc(C#N)cc2)nc2c1CN(C(=O)[C@H](CC(C)C)NC(=O)OC(C)(C)C)CC2` [BB0274128, (S)-Tert-butyl (1-(4-(4-cyano-2,6-dimethylphenoxy)-2-((4-cyanophenyl)amino)-7,8-dihydropyrido[4,3-d]pyrimidine-6(5H)-yl)-4-methyl-1-oxopentane-2-yl)carbamate] is 113 µM; for `Cc1cc(C#N)cc(C)c1Oc1nc(Nc2ccc(C#N)cc2)nc2c1CN(C(=O)[C@@H](N)CC(C)C)CC2` [BB0274129, (S)-4-((6-(2-Amino-4-methylpentanoyl)-2-((4-cyanophenyl)amino)-5,6,7,8-tetrahydropyrido[4,3-d]pyrimidine-4-yl)oxy)-3,5-dimethylbenzonitrile] it is 1.04 µM.
As to `Cc1cc(C#N)cc(C)c1Oc1nc(Nc2ccc(C#N)cc2)nc2c1CN(C(=O)[C@H](CCCCNC(=O)OC(C)(C)C)NC(=O)OC(C)(C)C)CC2` [BB0274130, (S)-Di-tert-butyl (6-(4-(4-cyano-2,6-dimethylphenoxy)-2-((4-cyanophenyl)amino)-7,8-dihydropyrido[4,3-d]pyrimidine-6(5H)-yl)-6-oxohexane-1,5-diyl)dicarbamate], the IC50 is 240 µM.
The figure for `Cc1cc(C#N)cc(C)c1Oc1nc(Nc2ccc(C#N)cc2)nc2c1CN(C(=O)[C@@H](N)CCCCN)CC2` [BB0274131, (S)-4-((2-((4-Cyanophenyl)amino)-6-(2,6-diaminohexanoyl)-5,6,7,8-tetrahydropyrido[4,3-d]pyrimidine-4-yl)oxy)-3,5-dimethylbenzonitrile] is 0.667 µM.
For the compound `CSCC[C@H](N)C(=O)N1CCc2nc(Nc3ccc(C#N)cc3)nc(Oc3c(C)cc(C#N)cc3C)c2C1` [BB0274132, 4-((2-((4-cyanophenyl)amino)-6-methionyl-5,6,7,8-tetrahydropyrido[4,3-d]pyrimidin-4-yl)oxy)-3,5-dimethylbenzonitrile], the IC50 came to 0.909 µM.
In the case of `Cc1cc(C#N)cc(C)c1Oc1nc(Nc2ccc(C#N)cc2)nc2c1CCN(C(=O)CCl)CC2` [BB0274133, 4-((7-(2-Chloroacetyl)-2-((4-cyanophenyl)amino)-6,7,8,9-tetrahydro-5H-pyrimido[4,5-d]azepine-4-yl)oxy)-3,5-dimethylbenzonitrile], the IC50 amounted to 10.5 µM.
As to `COC(=O)N1CCc2nc(Nc3ccc(C#N)cc3)nc(Oc3c(C)cc(C#N)cc3C)c2CC1` [BB0274134, Methyl 4-(4-cyano-2,6-dimethylphenoxy)-2-((4-4-cyanophenyl)amino)-8,9-dihydro-5H-pyrimido[4,5-d]azepine-7(6H)-carboxylate], the IC50 was 0.0959 µM.
Take `Cc1cc(C#N)cc(C)c1Oc1nc(Nc2ccc(C#N)cc2)nc2c1CCN(S(C)(=O)=O)CC2` [BB0274135, 4-((2-((4-Cyanophenyl)amino)-7-(methylsulfonyl)-6,7,8,9-tetrahydro-5H-pyrimido[4,5-d]azepine-4-yl)oxy)-3,5-dimethylbenzonitrile]: the IC50 amounted to 6.13 µM.
As to `Cc1cc(C#N)cc(C)c1Oc1nc(Nc2ccc(C#N)cc2)nc2c1CN(Cc1ccncc1)CC2` [BB0274137, 4-((2-((4-Cyanophenyl)amino)-6-(pyridine-4-ylmethyl)-5,6,7,8-tetrahydropyrido[4,3-d]pyrimidine-4-yl)oxy)-3,5-dimethylbenzonitrile], the IC50 was 0.00799 µM.
The figure for `Cc1cc(C#N)cc(C)c1Oc1nc(Nc2ccc(C#N)cc2)nc2c1CN(Cc1cccnc1)CC2` [BB0274138, 4-((2-((4-Cyanophenyl)amino)-6-(pyridine-3-ylmethyl)-5,6,7,8-tetrahydropyrido[4,3-d]pyrimidine-4-yl)oxy)-3,5-dimethylbenzonitrile] is 0.00676 µM.
With `Cc1cc(C#N)cc(C)c1Oc1nc(Nc2ccc(C#N)cc2)nc2c1CN(Cc1ccccc1O)CC2` [BB0274140, 4-((2-((4-Cyanophenyl)amino)-6-(2-hydroxybenzyl)-5,6,7,8-tetrahydropyrido[4,3-d]pyrimidine-4-yl)oxy)-3,5-dimethylbenzonitrile], the IC50 amounted to 27.8 µM.
The figure for `C#CCOc1ccccc1CN1CCc2nc(Nc3ccc(C#N)cc3)nc(Oc3c(C)cc(C#N)cc3C)c2C1` [BB0274141, 4-((2-((4-Cyanophenyl)amino)-6-(2-(prop-2-in-1-yloxy)benzyl)-5,6,7,8-tetrahydropyrido[4,3-d]pyrimidine-4-yl)oxy)-3,5-dimethylbenzonitrile] is 174 µM.
The figure for `Cc1cc(C#N)cc(C)c1Oc1nc(Nc2ccc(C#N)cc2)nc2c1CCN(CCC(=O)O)CC2` [BB0274143, 3-(4-(4-Cyano-2,6-dimethylphenoxy)-2-((4-cyanophenyl)amino)-8,9-dihydro-5H-pyrimido[4,5-d]azepine-7(6H)-yl)propanoic acid] is 0.71 µM; for `C=CCN1CCc2nc(Nc3ccc(C#N)cc3)nc(Oc3c(C)cc(C#N)cc3C)c2CC1` [BB0274144, 4-((7-Allyl-2-((4-cyanophenyl)amino)-6,7,8,9-tetrahydro-5H-pyrimido[4,5-d]azepine-4-yl)oxy)-3,5-dimethylbenzonitrile] it is 1.63 µM; for `CC(=O)N1CCc2nc(Nc3ccc(C#N)cc3)nc(Oc3c(C)cc(C#N)cc3C)c2CC1` [BB0274145, 4-((7-Acetyl-2-((4-cyanophenyl)amino)-6,7,8,9-tetrahydro-5H-pyrimido[4,5-d]azepine-4-yl)oxy)-3,5-dimethylbenzonitrile] it is 1.69 µM.
For `Cc1cc(C#N)cc(C)c1Oc1nc(Nc2ccc(C#N)cc2)nc2c1CCN(C(=O)Cn1ccnc1)CC2` [BB0274227, 4-((7-(2-(1H-Imidazole-1-yl)acetyl)-2-((4-cyanophenyl)amino)-6,7,8,9-tetrahydro-5H-pyrimido[4,5-d]azepine-4-yl)oxy)-3,5-dimethylbenzonitrile], the IC50 is 0.0125 µM.
The figure for `Cc1cc(C#N)cc(C)c1Oc1nc(Nc2ccc(C#N)cc2)nc2c1CCN(C(=O)Cn1ccnc1C)CC2` [BB0274236, 4-((2-((4-Cyanophenyl)amino)-7-(2-(methyl-1H-imidazole-1-yl)acetyl)-6,7,8,9-tetrahydro-5H-pyrimido[4,5-d]azepine-4-yl)oxy)-3,5-dimethylbenzonitrile] is 0.0488 µM; for `Cc1cc(C#N)cc(C)c1Oc1nc(Nc2ccc(C#N)cc2)nc2c1CN(S(N)(=O)=O)CC2` [BB0274239, 4-(4-Cyano-2,6-dimethylphenoxy)-2-[(4-cyanophenyl)amino]-5H,6H,7H,8H-pyrido[4,3-d]pyrimidine-6-sulfonamide] it is 359 µM.
Regarding `COC(=O)C(=O)N1CCc2nc(Nc3ccc(C#N)cc3)nc(Oc3c(C)cc(C=O)cc3C)c2CC1` [BB0274312, Methyl 2-{2-[(4-cyanophenyl)amino]-4-(4-formyl-2,6-dimethylphenoxy)-5H,6H,7H,8H,9H-pyrimido [4,5-d]azepine-7-yl}-2-oxoacetate], the IC50 came out at 34.8 µM.
Take `Cc1cc(C#N)cc(C)c1OC1=NC(Nc2ccc(C#N)cc2)=NC2CCN(C(=O)NC3CCOCC3)CC12` (stereo not drawn) [BB0274337, 4-(4-Cyano-2,6-dimethylphenoxy)-2-[(4-cyanophenyl)amino]-N-(oxan-4-yl)-4aH,5H,6H,7H,8H,8aH-pyrido [4,3-d]pyrimidine-6-carboxamide]: the IC50 worked out at 205 µM.
For `Cc1cc(C#N)cc(C)c1Oc1nc(Nc2ccc(C#N)cc2)nc2c1CN(C(=O)C(N)Cc1cnc[nH]1)CC2` (stereo not drawn) [BB0275622, 4-({6-[2-Amino-3-(1H-imidazole-5-yl)propanoyl]-2-[(4-cyanophenyl)amino]-5H,6H,7H,8H-pyrido[4,3-d]pyrimidine-4-yl}oxy)-3,5-dimethylbenzonitrile], the IC50 stood at 0.032 µM.

The record behind these values is patent publication US12485121B2, “Antiviral agents for the treatment and prevention of HIV infection” (Pharmasyntez, Joint Stock Company, priority 2020, dated 2025).
